Laboratory results reported in patent US12408667B2, “Herbicidal mixtures comprising isoxaflutole, pyroxasulfone and an imidazolinone herbicide; and their use in soybean and cotton cultures” (BASF SE, priority 2018, dated 2025).

Test system: GALAP (Galium aparine)
Test: greenhouse experiment, herbicidal action, evaluated on a scale from 0 to 100
Format: in vivo
Conditions: pre-emergence greenhouse
Excerpt: Synergism can be described as an interaction where the combined effect of two or more compounds is greater than the sum of the individual effects of each of the compounds. The presence of a synergistic effect in terms of percent control, between two mixing partners (X and Y) can be calculated using the Colby equation (Colby, S. R., 1967, Calculating Synergistic and Antagonistic Responses in Herbicide Combinations, Weeds, 15, 21-22): E=X+Y−XY/100
When the observed combined control effect is greater than the expected (calculated) combined control effect (E), then the combined effect is synergistic.
The culture containers used were plastic flowerpots containing loamy sand with approximately 3.0% of humus as the substrate. The seeds of the test plants were sown separately for each species. For pre-emergence treatment, the active ingredients, which had been suspended or emulsified in water, were applied directly after sowing by means of finely distributing nozzles. The containers were irrigated gently to promote germination and growth and subsequently covered with transparent plastic hoods until the plants had rooted. This cover caused uniform germination of the test plants, unless this had been impaired by the active ingredients. […] During this time, the plants were tended, and their response to the individual treatments was evaluated. […]

CS(=O)(=O)c1cc(C(F)(F)F)ccc1C(=O)c1cnoc1C1CC1 [Isoxaflutole, isoxaflutole]
Herbicidal action against GALAP, Found (Isoxaflutole 12.5 g/ha alone, 20 days, scale 0 to 100): 0
Herbicidal action against GALAP, Found (Isoxaflutole 25 g/ha alone, test period 20 days, scale 0 to 100 (100 = no emergence or complete destruction)): 0
